# Test results published in PubChem BioAssay (NCI).
# Where “and” joins values, the source holds several entries; their conditions need not be identical. Identical values can stand only once.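 Grown in 96-well plates, cells were treated for 48 hours with each compound at five concentrations. Insufficient inhibition: endpoint recorded as highest concentration tested. At the GI50, growth is halved. TGI denotes the concentration required for complete inhibition of growth.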
# What was measured:
# Experiment in all cases: NCI tumour cell line growth inhibition, 48 h
# [1] = system: 786-0 renal
# [2] = system: DU-145 prostate
# [3] = system: HOP-92 NSCLC
# [4] = system: IGROV1 ovarian
# [5] = system: LOX IMVI melanoma
# [6] = system: NCI-H522 lung
# [7] = system: OVCAR-3 ovarian
# [8] = system: RPMI-8226 leukemia
# [9] = system: UACC-257 melanoma
# [10] = system: UACC-62 melanoma
SMILES,GI50 [1],TGI [1],GI50 [2],TGI [2],GI50 [3],TGI [3],GI50 [4],TGI [4],GI50 [5],TGI [5],GI50 [6],TGI [6],GI50 [7],TGI [7],GI50 [8],TGI [8],GI50 [9],TGI [9],GI50 [10],TGI [10]
Cc1[nH]nc2ncc(C(=O)N3CCC[C@H]3c3ccc(Cl)cc3)cc12,47.7 µM,> 100 µM,> 100 µM,> 100 µM,80.7 µM,> 100 µM,66.1 µM,> 100 µM,47.2 µM,> 100 µM,> 100 µM,> 100 µM,64.2 µM,> 100 µM,63 µM,> 100 µM,> 100 µM,> 100 µM,44.1 µM,> 100 µM
COc1cc(C2CC(=O)Nc3c2c(C)nn3-c2nc3ccccc3[nH]2)cc(OC)c1O (stereo not given),3.01 µM,9.39 µM,4.98 µM,40.3 µM,2.8 µM,8.81 µM,2.82 µM,7.63 µM,3.08 µM,10.9 µM,2.38 µM,5.78 µM,2.95 µM,7.78 µM,3.07 µM,12.5 µM,2.98 µM,> 24.5 µM,2.06 µM,4.9 µM
COc1ccc2c(c1)C(c1cc(OC)c3c(c1)OCO3)C1=C(COC1=O)N2 (stereo not given),0.469 µM,> 36 µM,0.397 µM,3.16 µM,23.3 µM,> 100 µM,0.687 µM,> 84.5 µM,0.66 µM,> 100 µM,0.039 µM,0.232 µM,0.205 µM,0.481 µM,0.461 µM,> 100 µM,,> 100 µM,0.0984 µM,> 100 µM
O=C1NC(=NCCc2ccccn2)S/C1=C\c1ccc2ncccc2c1,16.8 µM,> 25 µM,11.7 µM,> 25 µM,9.33 µM,> 25 µM,9.29 µM,> 25 µM,13.3 µM,> 25 µM,9.02 µM,> 22.6 µM,9.88 µM,> 25 µM,13.1 µM,> 25 µM,15.4 µM,> 25 µM,9.73 µM,> 25 µM
Cn1c(=O)c(Oc2ccc(F)cc2F)cc2cnc(NC3CCOCC3)nc21,> 25 µM,> 25 µM,> 25 µM,> 25 µM,0.601 µM,19.4 µM,> 25 µM,> 25 µM,> 25 µM,> 25 µM,> 25 µM,> 25 µM,> 25 µM,> 25 µM,> 21.1 µM,> 25 µM,> 25 µM,> 25 µM,> 25 µM,> 25 µM
CC1(C)CCC(C)(C)c2cc(NC(=O)c3ccc(C(=O)O)cc3)ccc21,,> 85.4 µM,,> 100 µM,,64.1 µM,,> 75.6 µM,,48.3 µM,,> 89.3 µM,,> 57.9 µM,,> 100 µM,,> 100 µM,,39.4 µM
CC1Cc2ccccc2N1C(=O)Cc1nc(N2CCOCC2)cc(=O)[nH]1 (stereo not given),0.639 µM and 3.19 µM,> 100 µM and 98.4 µM,15.8 µM and 28.1 µM,> 100 µM,0.915 µM and 3.04 µM,46.1 µM and > 75.2 µM,3.09 µM and 9.02 µM,22.8 µM and 52.6 µM,11.6 µM and 16.7 µM,73.7 µM and > 100 µM,25.6 µM and 39.7 µM,> 100 µM,6.37 µM and 12.8 µM,> 100 µM,22.9 µM and > 58.3 µM,> 100 µM,15.9 µM and 20.2 µM,> 100 µM,0.856 µM and 1.73 µM,> 100 µM
CN(C)c1ccccc1[CH2][Ga]([Cl])[CH2]c1ccccc1N(C)C,1.38 µM,2.8 µM,1.61 µM,3.2 µM,0.416 µM,1.58 µM,1.29 µM,2.73 µM,1.13 µM,3.18 µM,1.41 µM,3.45 µM,1.4 µM,3.65 µM,0.651 µM,3.63 µM,1.51 µM,3.05 µM,0.717 µM,2.08 µM
O=c1oc2ccc(Br)cc2c(=O)n1-c1ccc(Cl)cc1F,2.38 µM,7.11 µM,1.86 µM,21.3 µM,0.179 µM,0.618 µM,0.61 µM,17.2 µM,0.827 µM,4.54 µM,0.586 µM,7.69 µM,0.641 µM,8.85 µM,0.446 µM,2.97 µM,0.915 µM,5.59 µM,0.33 µM,1.41 µM
CNC(=O)c1cccc(C#Cc2cncnc2Nc2ccc(OCc3cccc(F)c3)c(Cl)c2)c1,6.33 µM,> 25 µM,3.57 µM,8.96 µM,3.31 µM,11 µM,4.66 µM,> 25 µM,5.77 µM,> 17 µM,5.29 µM,> 25 µM,3.82 µM,8.03 µM,14 µM,> 25 µM,9.72 µM,> 25 µM,16 µM,> 25 µM
N#CC1=C(N)Oc2c(sc3c(Br)cccc23)C1c1ccc(Cl)cc1 (stereo not given),0.663 µM,2.71 µM,0.533 µM,3.29 µM,2 µM,7.29 µM,0.787 µM,4.35 µM,0.579 µM,8.45 µM,0.367 µM,2.43 µM,0.272 µM,0.749 µM,0.496 µM,9.25 µM,1.73 µM,22.7 µM,0.435 µM,8.35 µM
COC(=O)[C@@H](C)C[C@H](Cc1ccccc1)NC(=O)c1csc([C@@H](C[C@H](C(C)C)N(C)C(=O)[C@@H](NC(=O)[C@H]2CCCN2C)C2CC2)OC(C)=O)n1,0.00479 µM and 0.0025 µM,> 25 µM,0.000446 µM and 0.0025 µM,> 25 µM,0.000286 µM,,0.000823 µM and 0.0025 µM,> 25 µM,0.00477 µM and 0.0025 µM,> 25 µM,0.000223 µM,0.000814 µM,0.000198 µM,0.00695 µM,0.000262 µM and 0.0025 µM,12.2 µM,0.22 µM,,0.000445 µM and 0.0025 µM,> 25 µM
CN(C)CCOc1ccccc1NC1=C(Cl)C(=O)C(Nc2ccccc2OCCN(C)C)=C(Cl)C1=O,1.64 µM,5.92 µM,6.64 µM,,1.45 µM,3.07 µM,0.636 µM,1.48 µM,0.592 µM,1.25 µM,0.502 µM,1.14 µM,0.444 µM,0.879 µM,> 100 µM,> 100 µM,,> 41.1 µM,> 34.1 µM,> 49.3 µM
Cc1c2c(nn1-c1ccc(S(=O)(=O)NC(=S)NC(=O)c3ccccc3)cc1)-c1ccccc1CC2,> 100 µM,> 100 µM,23.9 µM,> 100 µM,> 100 µM,> 100 µM,> 100 µM,> 100 µM,50.3 µM,> 100 µM,50.4 µM,> 100 µM,13.7 µM,41.4 µM,36.3 µM,> 100 µM,10.7 µM,47.4 µM,29 µM,> 100 µM
Cc1ccc(OCCOCCOCCOCCOCCOc2ccc(C)n(O)c2=S)c(=S)n1O,0.0952 µM,> 100 µM,0.124 µM,> 100 µM,3.06 µM,54.5 µM,0.0372 µM,> 72.5 µM,0.054 µM,21.8 µM,0.0386 µM,> 100 µM,0.0377 µM,18.7 µM,0.0713 µM,> 100 µM,0.0425 µM,> 66.4 µM,0.0815 µM,12.5 µM
CN(C)CCS(=O)(=O)Nc1cc(-c2ccc3ncc(C#N)c(Nc4ccc(F)c(Cl)c4)c3c2)cnc1Cl,0.307 µM,3.61 µM,0.293 µM,2.11 µM,0.0322 µM,0.409 µM,0.0777 µM,0.287 µM,0.117 µM,0.284 µM,0.202 µM,0.883 µM,0.13 µM,0.412 µM,0.223 µM,0.897 µM,0.273 µM,3.51 µM,0.169 µM,0.63 µM
COc1cc(CCC(=O)NC[C@@H](O)c2ccccc2)ccc1O,> 100 µM,> 100 µM,> 100 µM,> 100 µM,> 100 µM,> 100 µM,> 100 µM,> 100 µM,> 100 µM,> 100 µM,> 100 µM,> 100 µM,> 100 µM,> 100 µM,> 100 µM,> 100 µM,> 100 µM,> 100 µM,> 100 µM,> 100 µM
CCOC(=O)c1cc(NS(=O)(=O)c2ccc(C)cc2)cc(C(=O)OCC)c1,53.7 µM,> 100 µM,34.9 µM,> 100 µM,32 µM,> 100 µM,51.7 µM,> 100 µM,61.4 µM,> 100 µM,34.5 µM,> 100 µM,34.5 µM,> 100 µM,27 µM,> 100 µM,45.5 µM,> 100 µM,44.2 µM,> 100 µM
CN1C(=O)C2(c3ccccc31)C1CC3C(CO1)C1C2C3(CO)CN1C#N (stereo not given),,> 100 µM,,> 100 µM,,> 100 µM,,> 100 µM,,> 100 µM,,> 100 µM,,> 100 µM,,> 100 µM,,> 100 µM,,> 100 µM
COc1ccc(Cn2cc3c(c2-c2cc(OC)c(OC)c(OC)c2)CCc2c(CO)noc2-3)cc1,0.493 µM,24.7 µM,0.361 µM,16 µM,2.97 µM,22.2 µM,0.596 µM,32.1 µM,0.615 µM,16.6 µM,0.206 µM,12.2 µM,0.312 µM,12.9 µM,0.41 µM,13.6 µM,16.5 µM,50.2 µM,0.354 µM,20.7 µM
CCC1(c2ccc(N)cc2)CCC(=O)NC1=O (stereo not given),,> 5000 µM,,> 5000 µM,,3560 µM,,> 4850 µM,,> 3970 µM,,4950 µM,,> 3970 µM,,> 5000 µM,,> 4880 µM,,> 4510 µM
COc1ccc2nc3cccc([N+](=O)[O-])c3c(NC(C)CN(C)C)c2c1 (stereo not given),2.22 µM,7.12 µM,1.89 µM,14.2 µM,2.38 µM,5.68 µM,1.67 µM,5.54 µM,1.91 µM,5.04 µM,0.69 µM,2.18 µM,3.15 µM,10.4 µM,1.78 µM,6 µM,2.67 µM,7.02 µM,1.46 µM,3.05 µM
COc1cc(/C=C/C(=O)c2c(-c3ccc(F)cc3)nc3sc(C)nn23)cc(OC)c1OC,3.31 µM,10.6 µM,2.91 µM,10.4 µM,1.6 µM,8.64 µM,2.69 µM,6.71 µM,1.76 µM,3.52 µM,1.55 µM,3.19 µM,2.63 µM,7 µM,1.92 µM,5.13 µM,4.18 µM,16.5 µM,1.94 µM,4.44 µM
O=C1c2c(Cl)c(Cl)c(Cl)c(Cl)c2C(=O)C2(Cl)CC=CCC12Cl (stereo not given),2 µM,3.62 µM,1.93 µM,3.36 µM,2.03 µM,3.87 µM,1.81 µM,3.86 µM,1.21 µM,2.56 µM,1.76 µM,3.52 µM,2.02 µM,3.48 µM,2.31 µM,6.12 µM,1.53 µM,2.95 µM,1.67 µM,3.27 µM
O=C(c1ccccc1)c1nc2ccc(C(F)(F)F)cc2nc1N1CCN(c2ccccc2)CC1,30.7 µM,76.1 µM,57.6 µM,> 100 µM,49.3 µM,> 100 µM,43.9 µM,> 100 µM,18.5 µM,38.4 µM,34.6 µM,91.3 µM,19.3 µM,39.5 µM,23.3 µM,> 100 µM,94.9 µM,> 100 µM,18.5 µM,43.2 µM
